Test results as given in patent US20230293464A1, “TREATMENT OF PANCREATIC DUCTAL ADENOCARCINOMA WITH MIRDAMETINIB” (SpringWorks Therapeutics Inc., priority 2022, published 2023).

How the values were obtained:
PDAC cells = test: Vacuole formation on apilimod treatment; type: cell-based; conditions: FIG. 3A
From the text: Cells were fixed and stained with EEA1 and LAMP1 antibodies and analyzed with confocal microscopy.

PDAC cell lines = test: Autophagic flux, mCherry-EGFP-LC3B autophagy reporter (flow cytometry, confocal imaging); type: cell-based; conditions: panel of PDAC cell lines, 24-hours treatment
Description: Autophagic flux was determined using flow cytometry. […] Live cell imaging was performed using confocal microscopy. FIG. 1D indicates the threshold of fluorescent intensity was set to include puncta and exclude cytosolic green and background fluorescence. Green and red puncta were quantified from FIG. 1C and plotted.

Cc1cccc(/C=N/Nc2cc(N3CCOCC3)nc(OCCc3ccccn3)n2)c1 [apilimod]
vacuole formation (PDAC cells): dose-dependent vacuole formation

O=C(NOC[C@H](O)CO)c1ccc(F)c(F)c1Nc1ccc(I)cc1F (single isomer, unassigned) [mirdametinib]
autophagic flux (PDAC cell lines): substantially induced autophagic flux
